Assays:
[1] = Clinical trials of daily oral Proellex (CDB-4124): liver toxicity / liver enzymes; format: in vivo, human; conditions: for subjects with liver enzyme elevations reported as SAEs: of seven SAEs
Method: (§1) The maximum concentrations of CDB-4124 and its mono-demethylated metabolite (CDB-4453) for the 12.5 mg dose were 25% of the 50 mg dose. All liver toxicities resolved in those women that returned for safety follow-ups, including those subjects that developed liver-associated serious adverse effects (SAEs).
To date, over 600 patients, including women with confirmed cases of endometriosis or uterine fibroids, have participated in double blind and open label clinical trials in which patients were administered daily oral capsules containing doses of 12.5 mg, 25 mg or 50 mg CDB-4124 (Proellex) for over one month. Of these patients, about 500 received Proellex and about 130 received a placebo. Of the patients receiving Proellex, about 190 received a dose of 50 mg CDB-4124 per day, about 260 received a dose of 25 mg CDB-4124 per day and about 55 received a dose of 12.5 mg per day.
Liver enzymes were frequently monitored in participating subjects. The liver enzyme level at which the clinical trials would be discontinued was set at an increase in liver aminotransferases greater than, or equal to three times the Upper Limit of Normal (≧3×ULN).
Of the nine subjects with a confirmed increase in liver enzymes ≧3×ULN, seven were severe enough elevations to be reported to the FDA as SAEs. One of these seven subjects had been receiving a dose of 25 mg CDB-4124 per day; the remaining six subjects had been receiving a dose of 50 mg CDB-4124 per day. Liver enzymes ≧3×ULN persisted in five of the nine subjects with a confirmed increase in liver enzymes ≧3×ULN. These five subjects had previously been dosed with the 50 mg dose. One of these subjects is receiving oral medication for treatment of their liver condition. Clinical trials involving CDB-4124 at all doses were voluntarily suspended as a result of these SAEs and were subsequently placed on clinical hold by the United States Food and Drug Administration for safety reasons.

[2] = Cmax after vaginal administration in beagles extrapolated to humans; format: in vivo; conditions: for predicted Cmax for vaginal administration as percentage of the same oral dose: humans, extrapolated from beagles
Method: FIG. 2 illustrates the actual Cmax observed for Proellex (CDB-4124) and its monodemethylated metabolite CDB-4453, following oral administration of CDB-4124 at 12.5 mg, 25 mg and 50 mg doses as well as the projected Cmax for 3 mg, 6 mg and 9 mg doses. FIG. 2 also illustrates the actual Cmax observed for Proellex (CDB-4124) and its monodemethylated metabolite CDB-4453, following vaginal administration of CDB-4124 at 12.5 mg, 25 mg and 50 mg doses.
The maximum circulating concentrations (Cmax) of CDB-4124 obtained following vaginal administration to beagles were extrapolated to humans for the 12.5 mg, 25 mg and 50 mg doses actually administered during the Phase III clinical studies.
For example, equivalent antiprogestational activity at the uterus is observed for a 50 mg oral dose of CDB-4124 and a 12.5 mg vaginal dose; however, the Cmax observed with a 12.5 mg vaginal dose is only 2% that observed with a 50 mg oral dose. […] Because a high concentration of the drug in the systemic circulation (and associated first pass metabolism of the drug) is not reached by local administration, avoidance of the severe liver toxicity observed in a small percentage of subjects following oral administration of CDB-4124 in previous Phase III clinical studies at doses of 25 and 50 mg is a surprising advantage of administering the drug locally. Similar advantages should inure to local administration of other antiprogestins.

[3] = Oral study, 1-12 mg CDB-4124 for 10 weeks; format: in vivo
Method: (§2) In an oral study, doses of 1, 3, 6, 9 and 12 mg of CDB-4124 were administered for a period of 10 weeks. […] Cessation of menses directly correlated to efficacy of an oral dose in both uterine fibroids and endometriosis.

[4] = tested on: primary cultures of human and animal hepatocytes; assay: Metabolism in primary cultures of hepatocytes; format: in vitro ADME; conditions: primary hepatocyte cultures
[5] = tested on: progesterone-induced endometrial proliferation; assay: Anti-Clauberg study, subcutaneous versus oral; format: in vivo, rabbits
Description: FIG. 3 illustrates a comparison of the inhibition of progesterone-induced endometrial proliferation in estradiol-primed immature rabbits following subcutaneous injection and oral administration of CDB-4124.
To determine whether the low circulating levels of CDB-4124 when administered locally could have any impact predictive of efficacy, an anti-Clauberg study was run in which immature estradiol-primed rabbits were coadministered progesterone and various doses of CDB-4124 by either subcutaneous or oral administration. At least 3 different highly trained individuals evaluated the rabbit uterus for glandular growth, for complexity and overall progesterone-induced “development”. The inhibition (by percentage) of progesterone-induced endometrial proliferation at each dose was assayed. […] However, maximal inhibition required a ˜8-fold increase in dosage when administered orally (i.e. 8 mg/kg). Importantly 8 mg/kg corresponds closely to the 50 mg/day dose of CDB-4124 administered to the female subjects described in Example 3.

[6] = tested on: hypothalamic pituitary axis (HPA); assay: Low-dose oral CDB-4124: effect on ovulation; format: in vivo; conditions: about 3-25 mg
Description: Contemporaneous systemic and local administration of antiprogestins to treat hormonally responsive breast cancer (i.e. the breast tumor contains estrogen and/or progesterone receptor) has advantages as well.

[7] = Oral versus vaginal pharmacokinetics in beagles (25 mg); format: in vivo; conditions: for metabolism after oral administration: oral micronized powder; for metabolism after vaginal administration / peak plasma concentration (Cmax): vaginal suppository
Method: FIG. 1 illustrates a comparison of the Cmax (peak serum concentration) and area under the curve (AUC) following oral and vaginal administration of CDB-4124 or CDB-4453 at a 25 mg dose in beagles.
Beagles were administered 25 mg of CDB-4124 or CDB-4453 (the monodemethylated metabolite of CDB-4124) formulated as either a micronized powder or a vaginal suppository.

uterine fibroids = assay: Single blind study of vaginal CDB-4124 in females with uterine fibroids; format: in vivo, human; conditions: vaginal 12 mg daily
Method: Seven human females with uterine fibroids have completed 4 months of treatment as part of a single blind study. These females were vaginally administered a daily dose of 12 mg CDB-4124 for a period of four months, with dosing initiated during the luteal phase of the females' menstrual cycles. At the end of the four month treatment period, all seven females stopped menstruating and all reported a Pictural Blood Loss Assessment Chart (PBAC) score of 0 (p=0.002). A statistically significant and highly clinically meaningful reduction in Uterine Fibroid Symptom Quality of Life Survey (UFSQOL) scores was also observed. The mean UFSQOL score at baseline was 43.8 and at the end of the four month treatment period the mean score was 1.33 (p=0.001). […] As a reference, women with fibroids typically score 40 or higher, whereas women without fibroids report scores of approximately 20.
Change in fibroid volume at the end of the four month treatment period determined by magnetic resonance imagining (MRI) was assessed and a statistically significant (chi square analysis) median reduction of total fibroid volume of 36% was observed.

[8] = tested on: progesterone-induced endometrial proliferation; assay: Anti-Clauberg study, vaginal versus oral (McPhail index); format: in vivo, rabbits
Method: FIG. 4 compares the antiprogestational effects of three doses of CDB-4124 when delivered orally versus when delivered to the vaginal mucosa of estradiol-primed immature rabbits in the presence of progesterone, as measured by a decrease in the McPhail index. Treatment with progesterone alone (vehicle control) provided a baseline measurement of progestational activity.
Another anti-Clauberg study was run in which immature estradiol-primed rabbits were administered progesterone alone (vehicle control) or were coadministered progesterone and three doses of CDB-4124 by either vaginal or oral administration. The inhibition of progesterone-induced endometrial proliferation at each dose was assayed. FIG. 3 illustrates the decrease in the McPhail index following increasing doses of CDB-4124 administered by either route. Maximal inhibition (i.e. a decrease in the McPhail index to 1.5) occurred at 0.2 mg/kg CDB-4124 when administered vaginally, compared to 0.8 mg/kg when administered orally.

[9] = tested on: DMBA-induced breast tumors; assay: DMBA-induced breast tumor model, subcutaneous injection; format: in vivo, rodents
Method: Pre-clinical studies were performed on rodents with breast tumors induced by 7,12-Dimethylbenz(a)anthracene (DMBA).

[10] = Pharmacokinetic studies in clinical trial subjects after oral CDB-4124; format: in vivo, human; conditions: for maximum concentration for the 12.5 mg dose as percentage of the 50 mg dose: oral CDB-4124
Method: as §1
Pharmacokinetic studies performed on participating subjects detected a high Cmax and a Tmax at 1-2 hours following administration. Large quantities of the monodemethylated metabolite of CDB-4124 were also detected, clearly indicating first pass metabolism of the antiprogestin. […] Metabolism of CDB-4124 by the liver provides the opportunity for liver damage and greatly reduces the concentration of the antiprogestin before it reaches the systemic circulation. Thus, alternative routes of administration of antiprogestins that avoid first pass metabolism such as, without limitation, intravenous, intramuscular, and sublingual, should allow antiprogestins to be absorbed directly into the systemic circulation and thereby provide a method for treating progesterone-dependent conditions while avoiding liver toxicity. Administration routes which avoid first pass metabolism may also require less drug per dose to achieve the same therapeutic benefit relative to oral administration.

[11] = Pharmacokinetic analysis of vaginal administration of 12 mg CDB-4124; format: in vivo, human
Method: as §2
Thus, the onset of amenorrhea is delayed when the drug is administered vaginally, necessitating that the drug be vaginally administered during subsequent menstruations, which tends to reduce absorption of the drug and is unpleasant and technically challenging for the patient. The methods of the present invention provide a solution to this problem by providing a brief period of oral administration, preceding and overlapping vaginal administration, which expedites the onset of amenorrhea while retaining the benefits of vaginal administration.

COCC(=O)[C@@]1(OC(C)=O)CC[C@H]2[C@@H]3CCC4=CC(=O)CCC4=C3[C@@H](c3ccc(N(C)C)cc3)C[C@@]21C [CDB-4124, 21-methoxy-17α-acetoxy-11β-(4 N, N-dimethylaminophenyl)-19-norpregna-4,9-diene-3,20-dione]
adverse liver toxicity signals ([1]; 12.5 mg): no adverse liver toxicity signals different from placebo
subjects with liver enzyme elevations reported as SAEs ([1]; 25 mg per day): One
frequency and intensity of liver effects relative to 50 mg/day ([1]; 25 mg/day): significantly lower in frequency and intensity
subjects in whom liver enzymes ≧3×ULN persisted ([1]; 50 mg dose, of nine confirmed): five
subjects with liver enzyme elevations reported as SAEs ([1]; 50 mg per day): six
women exhibiting severe liver toxicity ([1]; 50 mg/day): 3-4%
subjects with confirmed increase in liver enzymes ≧3×ULN ([1]; all doses (12.5, 25, 50 mg/day), confirmed by repeat test in 48 hours): nine
predicted Cmax for vaginal administration as percentage of the same oral dose ([2]; 12.5 mg dose): approximately 6.5%
predicted Cmax for vaginal administration as percentage of the same oral dose ([2]; 50 mg dose): approximately 2%
Cmax with a 12.5 mg vaginal dose as percentage of a 50 mg oral dose ([2]; in vivo, po): 2%
lowest dose inducing reliable cessation of menses ([3]; oral): 3 mg
tolerability ([3]; oral 1, 3, 6, 9 and 12 mg): well tolerated
formation of mono-demethylated metabolite [4]: rapidly produce the mono-demethylated metabolite
dose giving maximal inhibition of progesterone-induced endometrial proliferation ([5]; oral): 8 mg/kg
increase in dosage required for maximal inhibition, oral vs. subcutaneous ([5]; rabbit, in vivo): ~8 fold
dose giving maximal inhibition of progesterone-induced endometrial proliferation ([5]; subcutaneous): less than 1 mg/kg
suppression of ovulation [6]: partially but not completely suppress ovulation
systemic exposure (AUC), vaginal vs. oral [7]: much lower when administered locally
metabolism after oral administration [7]: rapidly metabolized
metabolism after vaginal administration [7]: metabolized slowly
peak plasma concentration (Cmax) [7]: relatively low
median reduction of total fibroid volume (MRI) (uterine fibroids; end of four months): 36%
Pictural Blood Loss Assessment Chart (PBAC) score (uterine fibroids; end of four months, p=0.002): 0
females who stopped menstruating (uterine fibroids; end of four months, seven females): seven
mean Uterine Fibroid Symptom Quality of Life Survey (UFSQOL) score (uterine fibroids; end of four months, baseline 43.8, p=0.001): 1.33
females no longer experiencing any fibroid related symptoms (uterine fibroids; four months, of seven): six
McPhail index at maximal inhibition ([8]; 0.2 mg/kg vaginal or 0.8 mg/kg oral): 1.5
dose giving maximal inhibition (decrease in McPhail index) ([8]; oral): 0.8 mg/kg
antiprogestational activity of vaginal delivery relative to the same oral dose ([8]; rabbit, in vivo, po): four
dose giving maximal inhibition (decrease in McPhail index) ([8]; vaginal): 0.2 mg/kg
effect on quantity and size of DMBA-induced breast tumors [9]: effective in reducing the quantity and size of DMBA-induced breast tumors
Tmax ([10]; following oral administration): 1 to 2 h
maximum concentration for the 12.5 mg dose as percentage of the 50 mg dose [10]: 25%
maximum exposure (Cmax) relative to a 50 mg oral dose ([11]; vaginal 12 mg): about 1/100
systemic exposure (AUC) relative to an equivalent oral dose ([11]; vaginal 12 mg): about ⅙
build-up of drug concentration, vaginal relative to oral ([11]; vaginal administration): build slowly

CNc1ccc([C@H]2C[C@@]3(C)[C@@H](CC[C@]3(OC(C)=O)C(=O)COC)[C@@H]3CCC4=CC(=O)CCC4=C32)cc1 [CDB-4453, 21-methoxy-17α-acetoxy-11β-(4-N-methylaminophenyl)-19-norpregna-4,9-diene-3,20-dione]
systemic exposure (AUC), vaginal vs. oral [7]: much lower when administered locally
metabolism after oral administration [7]: rapidly metabolized
metabolism after vaginal administration [7]: metabolized slowly
peak plasma concentration (Cmax) [7]: relatively low
maximum concentration for the 12.5 mg dose as percentage of the 50 mg dose [10]: 25%
